Laboratory results taken from PubChem BioAssay (NCI).
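Five compound concentrations were applied to cells in 96-well plates for 48 hours; endpoints were derived by simple linear interpolation of the resulting dose-response curve. TGI marks complete inhibition of growth.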

test system: HL-60(TB) leukemia; assay: inhibition of tumour cell growth, NCI panel, 48 h

| SMILES | TGI [µM] |
| --- | --- |
| COc1c(O)c2c3c(c(C)cc(O)c3c1O)C(=O)C(O)(C(C)(C)C(C)=O)C2=O (configuration not stated) | > 100 |
| Nc1nc(N)c(N=O)c(Nc2ccc(Br)cc2)n1 | > 100 |
| CC(=O)O/N=C/c1c2ccccc2cc2ccccc12 | > 100 |
| CCC1=CC2CN3Cn4c(c(COCc5c6n(c7ccccc57)CN5CC7C=C(CC)C5C6(C(=O)OC)C7)c5ccccc54)C(C(=O)OC)(C2)C13 | > 100 |
| CCOC(CNCCC(=O)OC)OCC | > 10 |
| C[C@@H](Cl)[C@H]1CCCN(Cc2ccc(Br)cc2)C1 | > 12.5 |
| Cc1c(N2C(=O)C(Cl)C2c2ccc(Cl)cc2)c(=O)n(-c2ccccc2)n1C (configuration not stated) | > 100 |
| COc1cc2nc(-c3cccs3)oc(=O)c2cc1OC | > 100 |

test system: HOP-62 NSCLC; assay: inhibition of tumour cell growth, NCI panel, 48 h

| SMILES | TGI [µM] |
| --- | --- |
| Cn1ccnc1C(O)(c1nccn1C)c1nccn1C | > 100 |
| Cc1ccc(CC[P+](=O)CCc2ccc(C)nc2)cn1 | > 100 |
| O=C(O)c1cc(-c2ccc3c(O)c(O)ccc3c2)ccc1O | > 75 |
| CCN(CC)CCCNC(=O)c1ccc([N+](=O)[O-])cc1O | > 100 |
| Cc1cn([C@@H]2C[C@H](CO)[C@@H](O)C2)c(=O)[nH]c1=O | > 100 |
| CC1CN=C(N(C(=O)Nc2ccc(F)c(Cl)c2)c2ccccc2)S1 (configuration not stated) | 61.6 |
| C=Cc1ccc(C)[n+](C[Si](C)(C)O[Si](C)(C)C[n+]2cc(C=C)ccc2C)c1 | > 100 |
| O=c1[nH]cnc(NC2C=C(CO)C(O)C2O)c1[N+](=O)[O-] (configuration not stated) | > 100 |
| O=C(NC(COC(=O)C(Cc1ccccc1)NC(=O)c1ccccc1)Cc1ccccc1)c1ccccc1 (configuration not stated) | > 50 |
| CCOC(=O)c1nc2ccc(C(F)(F)F)cc2nc1Oc1ccc(C#N)cc1 | 28.9 |
| CC(=O)OCC1OC(n2cc(I)c(=O)[nH]c2=O)C(OC(C)=O)C(OC(C)=O)C1OC(C)=O (configuration not stated) | > 100 |
| CC(O)CCCOC(c1ccccc1)(c1ccccc1)c1ccccc1 (configuration not stated) | 31.4 |
| COC(=O)c1cc2c(cc1CC1Cc3cc4c(cc3C1)CCC4)CCC2 | > 100 |
| CC(C(=O)N1C(=O)N(C(=O)C(C)C(O)c2ccccc2)C2CCCCC21)C(O)c1ccccc1 (configuration not stated) | > 100 |
| O=C1NCCS(=O)(=O)N[C@@H](CC2=CC=CCC2)C(=O)N2CCCC12 (some centres not stated) | > 100 |
| O=[N+]([O-])c1ccc(/C=C/c2cc(-c3ccccc3)nc3ccc4ccccc4c23)cc1 | > 100 |
| COc1ccc(-c2oc(/C=N/NC(N)=S)c([N+](=O)[O-])c2-c2ccc(OC)c(OC)c2)cc1OC | > 100 |
| CCN1CCCC(NCc2c3ccccc3c(CNC3CCCN(CC)C3)c3ccccc23)C1 (configuration not stated) | > 63.4 |
| COc1c(O)c2c3c(c(C)cc(O)c3c1O)C(=O)C(O)(C(C)(C)C(C)=O)C2=O (configuration not stated) | > 100 |
| Nc1nc(N)c(N=O)c(Nc2ccc(Br)cc2)n1 | 63.9 |
| CC(=O)O/N=C/c1c2ccccc2cc2ccccc12 | > 100 |
| O=C(NCCCN(CCCCN(CCCNC(=O)C(F)(F)F)Cc1ccc2ccccc2c1)Cc1ccc2ccccc2c1)C(F)(F)F | > 100 |
| CCC1=CC2CN3Cn4c(c(COCc5c6n(c7ccccc57)CN5CC7C=C(CC)C5C6(C(=O)OC)C7)c5ccccc54)C(C(=O)OC)(C2)C13 | > 100 |
| CCOC(CNCCC(=O)OC)OCC | > 10 |
| COc1ccc(CC2c3c(cc(OC)c(OC)c3OC)CCN2C)cc1OC (configuration not stated) | > 100 |
| C[C@@H](Cl)[C@H]1CCCN(Cc2ccc(Br)cc2)C1 | > 12.5 |
| Cc1c(N2C(=O)C(Cl)C2c2ccc(Cl)cc2)c(=O)n(-c2ccccc2)n1C (configuration not stated) | > 100 |
| COc1cc2nc(-c3cccs3)oc(=O)c2cc1OC | 69.1 |

test system: HOP-92 NSCLC; assay: inhibition of tumour cell growth, NCI panel, 48 h

| SMILES | TGI [µM] |
| --- | --- |
| Cn1ccnc1C(O)(c1nccn1C)c1nccn1C | > 100 |
| Cc1ccc(CC[P+](=O)CCc2ccc(C)nc2)cn1 | > 100 |
| CC12CCC3C(CCC4CC(OC(=O)Cc5ccc(N(CCCl)CCCl)cc5)CCC43C)C1CCC(=O)N2 (configuration not stated) | 30.9 |
| CCN(CC)CCCNC(=O)c1ccc([N+](=O)[O-])cc1O | > 100 |
| Cc1cn([C@@H]2C[C@H](CO)[C@@H](O)C2)c(=O)[nH]c1=O | > 100 |
| CC1CN=C(N(C(=O)Nc2ccc(F)c(Cl)c2)c2ccccc2)S1 (configuration not stated) | 48.1 |
| C=Cc1ccc(C)[n+](C[Si](C)(C)O[Si](C)(C)C[n+]2cc(C=C)ccc2C)c1 | > 100 |
| O=c1[nH]cnc(NC2C=C(CO)C(O)C2O)c1[N+](=O)[O-] (configuration not stated) | > 100 |
| CCOC(=O)C1(C(=O)OCC)COS(=O)OC1 | 28.6 |
| O=C(NC(COC(=O)C(Cc1ccccc1)NC(=O)c1ccccc1)Cc1ccccc1)c1ccccc1 (configuration not stated) | > 50 |
| CCOC(=O)c1nc2ccc(C(F)(F)F)cc2nc1Oc1ccc(C#N)cc1 | 47.2 |
| CC(=O)OCC1OC(n2cc(I)c(=O)[nH]c2=O)C(OC(C)=O)C(OC(C)=O)C1OC(C)=O (configuration not stated) | > 100 |
| CC(O)CCCOC(c1ccccc1)(c1ccccc1)c1ccccc1 (configuration not stated) | 25.5 |
| COC(=O)c1cc2c(cc1CC1Cc3cc4c(cc3C1)CCC4)CCC2 | 98.9 |
| O=C1NCCS(=O)(=O)N[C@@H](CC2=CC=CCC2)C(=O)N2CCCC12 (some centres not stated) | > 100 |
| COc1ccc(-c2oc(/C=N/NC(N)=S)c([N+](=O)[O-])c2-c2ccc(OC)c(OC)c2)cc1OC | 79 |
| CCC1=NC(C(F)(F)F)(C(F)(F)F)N=C(N2CCOCC2)O1 | > 100 |
| CCN1CCCC(NCc2c3ccccc3c(CNC3CCCN(CC)C3)c3ccccc23)C1 (configuration not stated) | 38.6 |
| COc1c(O)c2c3c(c(C)cc(O)c3c1O)C(=O)C(O)(C(C)(C)C(C)=O)C2=O (configuration not stated) | > 100 |
| Nc1nc(N)c(N=O)c(Nc2ccc(Br)cc2)n1 | > 100 |
| CC(=O)O/N=C/c1c2ccccc2cc2ccccc12 | > 100 |
| O=C(NCCCN(CCCCN(CCCNC(=O)C(F)(F)F)Cc1ccc2ccccc2c1)Cc1ccc2ccccc2c1)C(F)(F)F | > 100 |
| CCOC(CNCCC(=O)OC)OCC | > 10 |
| C[C@@H](Cl)[C@H]1CCCN(Cc2ccc(Br)cc2)C1 | > 12.5 |
| Cc1c(N2C(=O)C(Cl)C2c2ccc(Cl)cc2)c(=O)n(-c2ccccc2)n1C (configuration not stated) | > 100 |
| COc1cc2nc(-c3cccs3)oc(=O)c2cc1OC | > 100 |

test system: HS 578T breast; assay: inhibition of tumour cell growth, NCI panel, 48 h

| SMILES | TGI [µM] |
| --- | --- |
| Cc1ccc(CC[P+](=O)CCc2ccc(C)nc2)cn1 | > 100 |
| O=C(O)c1cc(-c2ccc3c(O)c(O)ccc3c2)ccc1O | > 75 |
| CC1CN=C(N(C(=O)Nc2ccc(F)c(Cl)c2)c2ccccc2)S1 (configuration not stated) | > 100 |
| CCOC(=O)C1(C(=O)OCC)COS(=O)OC1 | > 100 |
| O=C(NC(COC(=O)C(Cc1ccccc1)NC(=O)c1ccccc1)Cc1ccccc1)c1ccccc1 (configuration not stated) | > 50 |
| CCOC(=O)c1nc2ccc(C(F)(F)F)cc2nc1Oc1ccc(C#N)cc1 | 36.5 |
| CC(O)CCCOC(c1ccccc1)(c1ccccc1)c1ccccc1 (configuration not stated) | 39.6 |
| COC(=O)c1cc2c(cc1CC1Cc3cc4c(cc3C1)CCC4)CCC2 | > 100 |
| O=[N+]([O-])c1ccc(/C=C/c2cc(-c3ccccc3)nc3ccc4ccccc4c23)cc1 | > 100 |
| CCC1=NC(C(F)(F)F)(C(F)(F)F)N=C(N2CCOCC2)O1 | > 100 |
| CC(=O)O/N=C/c1c2ccccc2cc2ccccc12 | > 100 |
| CCOC(CNCCC(=O)OC)OCC | > 10 |
| C[C@@H](Cl)[C@H]1CCCN(Cc2ccc(Br)cc2)C1 | > 12.5 |
| COc1cc2nc(-c3cccs3)oc(=O)c2cc1OC | > 100 |

test system: MCF7 breast; assay: inhibition of tumour cell growth, NCI panel, 48 h

| SMILES | TGI [µM] |
| --- | --- |
| Cc1ccc(CC[P+](=O)CCc2ccc(C)nc2)cn1 | > 100 |
| O=C(O)c1cc(-c2ccc3c(O)c(O)ccc3c2)ccc1O | 25.1 |
| CC1CN=C(N(C(=O)Nc2ccc(F)c(Cl)c2)c2ccccc2)S1 (configuration not stated) | 25.9 |
| CCOC(=O)C1(C(=O)OCC)COS(=O)OC1 | 36.6 |
| O=C(NC(COC(=O)C(Cc1ccccc1)NC(=O)c1ccccc1)Cc1ccccc1)c1ccccc1 (configuration not stated) | > 50 |
| CCOC(=O)c1nc2ccc(C(F)(F)F)cc2nc1Oc1ccc(C#N)cc1 | 37.7 |
| CC(O)CCCOC(c1ccccc1)(c1ccccc1)c1ccccc1 (configuration not stated) | 28.3 |
| COC(=O)c1cc2c(cc1CC1Cc3cc4c(cc3C1)CCC4)CCC2 | 91.2 |
| O=[N+]([O-])c1ccc(/C=C/c2cc(-c3ccccc3)nc3ccc4ccccc4c23)cc1 | > 100 |
| CCC1=NC(C(F)(F)F)(C(F)(F)F)N=C(N2CCOCC2)O1 | > 100 |
| CCN1CCCC(NCc2c3ccccc3c(CNC3CCCN(CC)C3)c3ccccc23)C1 (configuration not stated) | 15.2 |
| CC(=O)O/N=C/c1c2ccccc2cc2ccccc12 | > 100 |
| O=C(NCCCN(CCCCN(CCCNC(=O)C(F)(F)F)Cc1ccc2ccccc2c1)Cc1ccc2ccccc2c1)C(F)(F)F | 4.54 |
| CCOC(CNCCC(=O)OC)OCC | > 10 |
| C[C@@H](Cl)[C@H]1CCCN(Cc2ccc(Br)cc2)C1 | > 12.5 |
| Cc1c(N2C(=O)C(Cl)C2c2ccc(Cl)cc2)c(=O)n(-c2ccccc2)n1C (configuration not stated) | > 100 |
| COc1cc2nc(-c3cccs3)oc(=O)c2cc1OC | > 100 |

test system: MDA-N; assay: inhibition of tumour cell growth, NCI panel, 48 h

| SMILES | TGI [µM] |
| --- | --- |
| Cc1ccc(CC[P+](=O)CCc2ccc(C)nc2)cn1 | > 100 |
| O=C(O)c1cc(-c2ccc3c(O)c(O)ccc3c2)ccc1O | > 75 |
| CC1CN=C(N(C(=O)Nc2ccc(F)c(Cl)c2)c2ccccc2)S1 (configuration not stated) | 34.7 |
| CCOC(=O)C1(C(=O)OCC)COS(=O)OC1 | > 100 |
| CC(O)CCCOC(c1ccccc1)(c1ccccc1)c1ccccc1 (configuration not stated) | 31.7 |
| COC(=O)c1cc2c(cc1CC1Cc3cc4c(cc3C1)CCC4)CCC2 | > 100 |
| O=[N+]([O-])c1ccc(/C=C/c2cc(-c3ccccc3)nc3ccc4ccccc4c23)cc1 | > 100 |
| CCC1=NC(C(F)(F)F)(C(F)(F)F)N=C(N2CCOCC2)O1 | > 100 |
| CCOC(CNCCC(=O)OC)OCC | > 10 |
| C[C@@H](Cl)[C@H]1CCCN(Cc2ccc(Br)cc2)C1 | > 12.5 |
| Cc1c(N2C(=O)C(Cl)C2c2ccc(Cl)cc2)c(=O)n(-c2ccccc2)n1C (configuration not stated) | 81.3 |

test system: NCI-H23 lung; assay: inhibition of tumour cell growth, NCI panel, 48 h

| SMILES | TGI [µM] |
| --- | --- |
| Cn1ccnc1C(O)(c1nccn1C)c1nccn1C | > 100 |
| Cc1ccc(CC[P+](=O)CCc2ccc(C)nc2)cn1 | > 100 |
| CC12CCC3C(CCC4CC(OC(=O)Cc5ccc(N(CCCl)CCCl)cc5)CCC43C)C1CCC(=O)N2 (configuration not stated) | 25.8 |
| O=C(O)c1cc(-c2ccc3c(O)c(O)ccc3c2)ccc1O | > 75 |
| CCN(CC)CCCNC(=O)c1ccc([N+](=O)[O-])cc1O | > 100 |
| Cc1cn([C@@H]2C[C@H](CO)[C@@H](O)C2)c(=O)[nH]c1=O | > 100 |
| CC1CN=C(N(C(=O)Nc2ccc(F)c(Cl)c2)c2ccccc2)S1 (configuration not stated) | 52 |
| C=Cc1ccc(C)[n+](C[Si](C)(C)O[Si](C)(C)C[n+]2cc(C=C)ccc2C)c1 | > 100 |
